Laboratory results from patent publication US20120052528A1, “METHOD FOR PRODUCING SELECTIVE MEDIUM AND USE THEREOF” (THE UNIVERSITY OF TOKYO, priority 2009, published 2012).

Tests used:
[1] = tested on: contaminating germs in soil; assay: Limited search of carbon sources: assimilation by contaminating germs in soil; type: cell-based; conditions: conclusion from Table 5
other bacterial cells = assay: Limited search of carbon sources: colony formation of other bacterial cells from a soil suspension on carbon-source agar medium; conditions: soil suspension smeared on agar medium with the carbon source, 30° C., 5 days; relative value, carbon source-free medium = 100%
Protocol: (§1) Any carbon source, crystal violet (antibiotic) and agar are mixed with basic medium components so as to prepare an agar medium. A soil suspension (100 p1) prepared by suspending of soil for plant cultivation (1 g) in water (100 ml) is smeared (repeatedly 3 times) on the medium, followed by culture at 30° C. for 5 days. The numbers of colonies of filamentous bacterial cells and other bacterial cells that are formed on the medium are counted. Each counted value is represented as a relative value (%) determined based on the number of colonies formed on a “carbon source-free” medium (100%). If the degree of colony formation is less than 30 (for filamentous bacterial cells) and is less than 60 (for bacterial cells), the carbon source is selected as a carbon source having high growth inhibitory effects. The smaller value indicates the smaller number of contaminating germs (filamentous bacteria and other bacteria) that assimilate the carbon source.

[2] = tested on: filamentous bacterial cells; assay: Limited search of carbon sources: colony formation of filamentous bacterial cells from a soil suspension on carbon-source agar medium; conditions: soil suspension smeared on agar medium with the carbon source, 30° C., 5 days; relative value, carbon source-free medium = 100%
Protocol: as §1

Compound: O=C[C@@H](O)[C@H](O)[C@H](O)CO [Arabinose]
- likelihood of assimilation of the carbon source by contaminating germs in soil [1]: less likely to be assimilated
- Other bacterial cells Average number of grown colonies ± standard error (other bacterial cells): 51 ± 2%
- Filamentous bacterial cells Average number of grown colonies ± standard error [2]: 100 ± 0%

Compound: N=C(N)NCCC[C@H](N)C(=O)O [Arginine]
- likelihood of assimilation of the carbon source by contaminating germs in soil [1]: less likely to be assimilated
- Other bacterial cells Average number of grown colonies ± standard error (other bacterial cells): 99 ± 3%
- Filamentous bacterial cells Average number of grown colonies ± standard error [2]: 19 ± 8%

Compound: N[C@@H](CC(=O)O)C(=O)O [Aspartic acid]
- likelihood of assimilation of the carbon source by contaminating germs in soil [1]: less likely to be assimilated
- Other bacterial cells Average number of grown colonies ± standard error (other bacterial cells): 32 ± 3%
- Filamentous bacterial cells Average number of grown colonies ± standard error [2]: 11 ± 9%

Compound: O=C[C@H](O)[C@@H](O)[C@H](O[C@@H]1O[C@H](CO)[C@@H](O)[C@H](O)[C@H]1O)[C@H](O)CO [Cellobiose]
- Other bacterial cells Average number of grown colonies ± standard error (other bacterial cells): 76 ± 5%
- Filamentous bacterial cells Average number of grown colonies ± standard error [2]: 42 ± 18%

Compound: O=C(CO)[C@@H](O)[C@H](O)[C@H](O)CO [Fructose]
- Other bacterial cells Average number of grown colonies ± standard error (other bacterial cells): 84 ± 3%
- Filamentous bacterial cells Average number of grown colonies ± standard error [2]: 100 ± 0%

Compound: N[C@@H](CCC(=O)O)C(=O)O [Glutamic acid]
- Other bacterial cells Average number of grown colonies ± standard error (other bacterial cells): 66 ± 6%
- Filamentous bacterial cells Average number of grown colonies ± standard error [2]: 83 ± 14%

Compound: NC(=O)CC[C@H](N)C(=O)O [Glutamine]
- Other bacterial cells Average number of grown colonies ± standard error (other bacterial cells): 66 ± 4%
- Filamentous bacterial cells Average number of grown colonies ± standard error [2]: 100 ± 0%

Compound: NCC(=O)O [Glycine]
- Other bacterial cells Average number of grown colonies ± standard error (other bacterial cells): 69 ± 5%
- Filamentous bacterial cells Average number of grown colonies ± standard error [2]: 72 ± 2%

Compound: N[C@@H](Cc1c[nH]cn1)C(=O)O [Histidine]
- Other bacterial cells Average number of grown colonies ± standard error (other bacterial cells): 62 ± 2%
- Filamentous bacterial cells Average number of grown colonies ± standard error [2]: 203 ± 32%

Compound: O[C@H]1[C@H](O)[C@@H](O)[C@H](O)[C@@H](O)[C@H]1O [Inositol]
- likelihood of assimilation of the carbon source by contaminating germs in soil [1]: less likely to be assimilated
- Other bacterial cells Average number of grown colonies ± standard error (other bacterial cells): 57 ± 7%
- Filamentous bacterial cells Average number of grown colonies ± standard error [2]: 0 ± 0%

Compound: CC[C@H](C)[C@H](N)C(=O)O [Isoleucine]
- likelihood of assimilation of the carbon source by contaminating germs in soil [1]: less likely to be assimilated
- Other bacterial cells Average number of grown colonies ± standard error (other bacterial cells): 44 ± 2%
- Filamentous bacterial cells Average number of grown colonies ± standard error [2]: 28 ± 2%

Compound: OC[C@H]1O[C@@H](O[C@H]2[C@H](O)[C@@H](O)C(O)O[C@@H]2CO)[C@H](O)[C@@H](O)[C@H]1O (stereo partly drawn) [Lactose]
- Other bacterial cells Average number of grown colonies ± standard error (other bacterial cells): 77 ± 4%
- Filamentous bacterial cells Average number of grown colonies ± standard error [2]: 128 ± 2%

Compound: CC(C)C[C@H](N)C(=O)O [Leucine]
- likelihood of assimilation of the carbon source by contaminating germs in soil [1]: less likely to be assimilated
- Other bacterial cells Average number of grown colonies ± standard error (other bacterial cells): 42 ± 3%
- Filamentous bacterial cells Average number of grown colonies ± standard error [2]: 67 ± 141%

Compound: NCCCC[C@H](N)C(=O)O [Lysine]
- likelihood of assimilation of the carbon source by contaminating germs in soil [1]: less likely to be assimilated
- Other bacterial cells Average number of grown colonies ± standard error (other bacterial cells): 56 ± 5%
- Filamentous bacterial cells Average number of grown colonies ± standard error [2]: 33 ± 14%

Compound: OC[C@@H](O)[C@@H](O)[C@H](O)[C@H](O)CO [Mannitol]
- likelihood of assimilation of the carbon source by contaminating germs in soil [1]: less likely to be assimilated
- Other bacterial cells Average number of grown colonies ± standard error (other bacterial cells): 54 ± 4%
- Filamentous bacterial cells Average number of grown colonies ± standard error [2]: 27 ± 17%

Compound: CSCC[C@H](N)C(=O)O [Methionine]
- likelihood of assimilation of the carbon source by contaminating germs in soil [1]: less likely to be assimilated
- Other bacterial cells Average number of grown colonies ± standard error (other bacterial cells): 38 ± 4%
- Filamentous bacterial cells Average number of grown colonies ± standard error [2]: 38 ± 16%

Compound: N[C@@H](Cc1ccccc1)C(=O)O [Phenylalanine]
- likelihood of assimilation of the carbon source by contaminating germs in soil [1]: less likely to be assimilated
- Other bacterial cells Average number of grown colonies ± standard error (other bacterial cells): 36 ± 6%
- Filamentous bacterial cells Average number of grown colonies ± standard error [2]: 47 ± 19%

Compound: O=C(O)[C@@H]1CCCN1 [Proline]
- likelihood of assimilation of the carbon source by contaminating germs in soil [1]: less likely to be assimilated
- Other bacterial cells Average number of grown colonies ± standard error (other bacterial cells): 66 ± 4%
- Filamentous bacterial cells Average number of grown colonies ± standard error [2]: 11 ± 9%

Compound: OC[C@@H](O)[C@@H](O)[C@@H](O)CO [Ribitol]
- Other bacterial cells Average number of grown colonies ± standard error (other bacterial cells): 67 ± 2%
- Filamentous bacterial cells Average number of grown colonies ± standard error [2]: 139 ± 11%

Compound: N[C@@H](CO)C(=O)O [Serine]
- Other bacterial cells Average number of grown colonies ± standard error (other bacterial cells): 87 ± 3%
- Filamentous bacterial cells Average number of grown colonies ± standard error [2]: 131 ± 16%

Compound: O=C([O-])CCCCC(=O)[O-].[Na+].[Na+] [Sodium adipate]
- Other bacterial cells Average number of grown colonies ± standard error (other bacterial cells): 122 ± 10%
- Filamentous bacterial cells Average number of grown colonies ± standard error [2]: 36 ± 18%

Compound: OC[C@@H](O)[C@@H](O)[C@H](O)[C@@H](O)CO [Sorbitol]
- Other bacterial cells Average number of grown colonies ± standard error (other bacterial cells): 63 ± 5%
- Filamentous bacterial cells Average number of grown colonies ± standard error [2]: 128 ± 2%

Compound: O=C(CO)[C@H](O)[C@@H](O)[C@H](O)CO [Sorbose]
- Other bacterial cells Average number of grown colonies ± standard error (other bacterial cells): 68 ± 3%
- Filamentous bacterial cells Average number of grown colonies ± standard error [2]: 128 ± 2%

Compound: OC[C@H]1O[C@@](CO)(O[C@H]2O[C@H](CO)[C@@H](O)[C@H](O)[C@H]2O)[C@@H](O)[C@@H]1O [Sucrose]
- Other bacterial cells Average number of grown colonies ± standard error (other bacterial cells): 71 ± 4%
- Filamentous bacterial cells Average number of grown colonies ± standard error [2]: 211 ± 15%

Compound: O=C(O)C(O)C(O)C(=O)O (stereo not drawn) [Tartaric acid]
- Other bacterial cells Average number of grown colonies ± standard error (other bacterial cells): 81 ± 3%
- Filamentous bacterial cells Average number of grown colonies ± standard error [2]: 64 ± 6%

Compound: C[C@@H](O)[C@H](N)C(=O)O [Threonine]
- likelihood of assimilation of the carbon source by contaminating germs in soil [1]: less likely to be assimilated
- Other bacterial cells Average number of grown colonies ± standard error (other bacterial cells): 59 ± 5%
- Filamentous bacterial cells Average number of grown colonies ± standard error [2]: 0 ± 0%

Compound: OC[C@H]1O[C@H](O[C@H]2O[C@H](CO)[C@@H](O)[C@H](O)[C@H]2O)[C@H](O)[C@@H](O)[C@@H]1O [Trehalose]
- likelihood of assimilation of the carbon source by contaminating germs in soil [1]: less likely to be assimilated
- Other bacterial cells Average number of grown colonies ± standard error (other bacterial cells): 51 ± 7%
- Filamentous bacterial cells Average number of grown colonies ± standard error [2]: 156 ± 5%

Compound: N[C@@H](Cc1c[nH]c2ccccc12)C(=O)O [Tryptophan]
- Other bacterial cells Average number of grown colonies ± standard error (other bacterial cells): 100 ± 5%
- Filamentous bacterial cells Average number of grown colonies ± standard error [2]: 167 ± 18%

Compound: N[C@@H](Cc1ccc(O)cc1)C(=O)O [Tyrosine]
- likelihood of assimilation of the carbon source by contaminating germs in soil [1]: less likely to be assimilated
- Other bacterial cells Average number of grown colonies ± standard error (other bacterial cells): 55 ± 4%
- Filamentous bacterial cells Average number of grown colonies ± standard error [2]: 81 ± 39%

Compound: CC(C)[C@H](N)C(=O)O [Valine]
- likelihood of assimilation of the carbon source by contaminating germs in soil [1]: less likely to be assimilated
- Other bacterial cells Average number of grown colonies ± standard error (other bacterial cells): 38 ± 5%
- Filamentous bacterial cells Average number of grown colonies ± standard error [2]: 19 ± 8%

Compound: Polygalacturonic acid
- likelihood of assimilation of the carbon source by contaminating germs in soil [1]: less likely to be assimilated
- Other bacterial cells Average number of grown colonies ± standard error (other bacterial cells): 19 ± 2%
- Filamentous bacterial cells Average number of grown colonies ± standard error [2]: 8 ± 7%
